Assays:
[1] = Vapor pressure by transpiration (inert gas-carrier transfer) method; sublimation thermodynamic functions; assay type: physicochemical; settings: test of the technique with the standard
Experimental: The thermodynamic functions of sublimation were calculated as the fitting coefficients of the Clarke and Glew equation [17]:(1) Rlnp/p^0=ΔcrgGm°(θ)/θ+ΔcrgHm°(θ)(1/θ−1/T)+ΔcrgCp,m°(θ)(θ/T−1+lnT/θ) where ΔcrgHm°(θ) is the standard molar sublimation enthalpy, ΔcrgGm°(θ) is the standard molar Gibbs energy of sublimation, and ΔcrgCp,m°(θ) is the difference between the constant pressure standard molar heat capacity Cp,m°(g) of the gaseous compound and the constant pressure standard molar heat capacity Cp,m°(cr) of the crystalline compound. The value is the arbitrary reference temperature θ = 298.15 K; p^0 = 10^5 Pa is the reference pressure.
The transpiration method was used for the sublimation experiment. A stream of an inert gas (nitrogen) was passed over a sample at the constant temperature and flow rate; saturation of the gas with the substance vapor was achieved by low transpiration rate of gas. Then, the sublimated quantity of condensed vapor was determined. The volume of the inert gas and the amount of the sublimated material were used for calculation the vapor pressure over the sample of compound at this temperature. The following procedure was used for determination the amount of sublimed substance. The condensed sample was dissolved in a known volume of solvent Vsol. The mass of the substance was determined by the measurement of absorbance A of its solution (spectrophotometer Cary-50, Varian, Palo Alto, CA, USA, Software Version 3.00 (339)). According to the Lambert–Beer law the concentration of the solution c (mol·L^−1) can express knowing a value of the extinction coefficient ε (l·mol^−1·cm^−1) of the studied compound dissolved in the solvent and an absorbing path length (l):A = εcl(5) where l is an absorbing path length. Calculation the mass of sublimed compound was performed according to the equation:m = cVsolM(6)
M is the molar mass of the studied substance.
The vapor pressure p at each temperature was determined from the amount of the substance collected within a known time:p = mRTa/VM(7) where V is the volume of the gaseous nitrogen evaluated from the time measurement and the flow rate at the flow meter temperature Ta and the atmospheric pressure. Uncertainties for transpiration experiment parameters (T, m, Ta, V) are reported as standard deviations (Table 1). The combined standard uncertainty of vapor pressure measurements were estimated taking into account uncertainties of all variables involved in eq 7.
The details of equipment and experimental procedure are given in [33]. The sublimation technique was tested with benzoic acid as standard. The experimental vapor pressure values were obtained in the temperature interval of (307–385) K and were in good agreement with the results of studies within the limits of experimental error (Figure S7). The standard sublimation enthalpy of benzoic acid measured by us was 90.5 ± 0.3 kJ·mol^−1 and consistent with recommended by IUPAC value—89.7 ± 0.5 kJ·mol^−1 [38]. Each experiment at fixed temperature was repeated three times with the standard deviation of up to 5%.

[2] = design: method as in earlier work; settings: cited from earlier work

O=C(O)c1ccccc1 [benzoic acid]
standard sublimation enthalpy [1]: 21.6 ± 0.072 kcal/mol | standard sublimation enthalpy recommended by IUPAC [2]: 21.4 ± 0.12 kcal/mol
